From PubChem BioAssay (NCI)
“And” between values parts separate entries of the source, which are not always exact repeats. Equal entries are not always repeated.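 Values below derive from 48-hour exposures of cells grown in 96-well plates, with endpoints linearly interpolated between the two concentrations bracketing the appropriate inhibition level. GI50 = concentration required for 50% inhibition of growth. The concentration for full growth arrest is given as TGI.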

Columns and labels:
Test in all cases: NCI anticancer screen, dose series, 48 h
[1] = test system: CCRF-CEM leukemia
[2] = test system: UO-31 renal
[3] = test system: LOX IMVI melanoma
[4] = test system: T-47D breast
[5] = test system: IGROV1 ovarian
[6] = test system: CAKI-1 renal
[7] = test system: NCI-H522 lung
[8] = test system: HCT-15 colon
[9] = test system: BT-549 breast
[10] = test system: HL-60(TB) leukemia

| Compound | GI50 [1] | TGI [1] [µM] | GI50 [2] [µM] | TGI [2] [µM] | GI50 [3] | TGI [3] | GI50 [4] | TGI [4] [µM] | GI50 [5] [µM] | TGI [5] [µM] | GI50 [6] [µM] | TGI [6] [µM] | GI50 [7] [µM] | TGI [7] [µM] | GI50 [8] [µM] | TGI [8] [µM] | GI50 [9] [µM] | TGI [9] [µM] | GI50 [10] [µM] | TGI [10] [µM] |
| --- | --- | --- | --- | --- | --- | --- | --- | --- | --- | --- | --- | --- | --- | --- | --- | --- | --- | --- | --- | --- |
| Cc1cc(O)c(-c2ccc([C@@H](C)CN(C)C)cc2)c2c1[nH]c(=O)c1sccc12 | 1.77 µM | > 41.9 | 0.287 | 1.88 | 0.785 µM | 27.5 µM | 0.309 µM | 5.19 | 0.534 | 5.16 | 1.82 | 33.4 | 0.436 | 2.9 | 1.42 | 31.3 | 0.574 | 3.44 | 0.453 | 7.38 |
| CC(C)(C)OC(=O)N[C@@H](Cc1ccccc1)C(=O)N(Cc1ccccc1)C1(C(=O)NCc2ccccc2)CCN(Cc2ccccc2)CC1 | 3.35 µM | > 100 | 2.16 | > 100 | 3.65 µM | 21.2 µM | 2.89 µM | > 100 | 5.7 | > 100 | 2.32 | > 100 | 4.02 | > 100 | 3.16 | > 100 | 2.11 | 8 | 2.5 | 6.1 |
| COC(=O)[C@H](Cc1cn(C)cn1)NC(=O)[C@H](Cc1ccccc1)NC(=O)Nc1cc(C(F)(F)F)cc(C(F)(F)F)c1 | 3.9 µM and 8.86 µM | 24.8 | 16.6 | 30.5 | 2.5 µM and 7.46 µM | 9.27 µM and 20.6 µM | 3.54 µM and 8.29 µM | 27 | 18.5 | 37.2 | 17.1 | 31.7 | 11.7 | 24.7 | 16.9 | 42.4 | 19.2 | 34.5 | 16.5 | 32.7 |
| COc1ccc(-c2cc(=O)c3c(O)c(OC)c(OC)c(OC)c3o2)cc1 |  | > 100 |  | > 100 |  | > 100 µM |  | > 100 |  | > 100 |  | > 100 |  | > 100 |  | > 100 |  | > 100 |  | > 100 |
| O=C(Nc1cccc(C(F)(F)F)c1)Oc1ccc(Cl)c2cccnc12 | 0.708 µM | 16.1 | 1.06 | 5.39 | 0.764 µM | 4.02 µM | 1.8 µM | > 28.2 | 1.22 | 4.43 | 2.03 | 4.79 | 0.906 | 4.28 | 0.584 | 9.19 | 0.524 | 3.69 | 0.776 |  |
| C[C@@H]1CC[C@@]2(NC1)O[C@H]1C[C@H]3[C@@H]4CC[C@H]5C[C@@H](O)CC[C@]5(C)[C@H]4CC[C@]3(C)[C@H]1[C@@H]2C |  | > 100 |  | > 100 |  | > 100 µM |  | > 100 |  | > 100 |  | > 100 |  | > 100 |  | > 100 |  | > 100 |  | 53.8 |
